Reference: patent US9963445B2, “Chemical compounds” (SYNGENTA PARTICIPATIONS AG, priority 2013, dated 2018)

How the values were obtained:
Type in all cases: in vivo
Abutilon theophrasti [1] = assay: Pre-emergence herbicidal activity, glasshouse pot test; settings: pre-emergence spray, rate 1000 g/ha, evaluated after 13 days, scale 0-5
Summary of the method: (§1)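 Test species were sown in pots and, after one day under controlled glasshouse conditions, treated with an aqueous spray of the active ingredient in acetone/water containing 0.5% Tween 20. Evaluation followed 13 days later, scoring plant damage from 0 (none) to 5 (total).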

Alopecurus myosuroides [2] = assay: as above; settings: pre-emergence spray, rate 1000 g/ha, evaluated after 13 days, scale 0-5
Summary of the method: as §1

Amaranthus retroflexus [3] = assay: as above; settings: pre-emergence spray, rate 1000 g/ha, evaluated after 13 days, scale 0-5
Summary of the method: as §1

Echinochloa crus-galli [4] = assay: as above; settings: pre-emergence spray, rate 1000 g/ha, evaluated after 13 days, scale 0-5
Summary of the method: as §1

Setaria faberi [5] = assay: as above; settings: pre-emergence spray, rate 1000 g/ha, evaluated after 13 days, scale 0-5
Summary of the method: as §1

zea mays [6] = assay: as above; settings: pre-emergence spray, rate 1000 g/ha, evaluated after 13 days, scale 0-5
Summary of the method: as §1

Abutilon theophrasti [7] = assay: Post-emergence herbicidal activity, glasshouse pot test; design: key: 0 = no damage to plant, 5 = total damage to plant; settings: Application post-emergence, rate 1000 g/ha, evaluated after 13 days
Summary of the method: (§2)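 Test solution: technical active ingredient in acetone/water (50:50) containing 0.5% Tween 20, applied as an aqueous spray to 8-day-old plants. Evaluation at 13 days, 0–5 damage scale.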

Alopecurus myosuroides [8] = assay: as above; design: key: 0 = no damage to plant, 5 = total damage to plant; settings: Application post-emergence, rate 1000 g/ha, evaluated after 13 days
Summary of the method: as §2

Amaranthus retroflexus [9] = assay: as above; design: key: 0 = no damage to plant, 5 = total damage to plant; settings: Application post-emergence, rate 1000 g/ha, evaluated after 13 days
Summary of the method: as §2

Echinochloa crus-galli [10] = assay: as above; design: key: 0 = no damage to plant, 5 = total damage to plant; settings: Application post-emergence, rate 1000 g/ha, evaluated after 13 days
Summary of the method: as §2

Setaria faberi [11] = assay: as above; design: key: 0 = no damage to plant, 5 = total damage to plant; settings: Application post-emergence, rate 1000 g/ha, evaluated after 13 days
Summary of the method: as §2

zea mays [12] = assay: as above; design: key: 0 = no damage to plant, 5 = total damage to plant; settings: Application post-emergence, rate 1000 g/ha, evaluated after 13 days
Summary of the method: as §2

SMILES	ABUTH damage score, application pre-emergence (Abutilon theophrasti [1])	ALOMY damage score, application pre-emergence (Alopecurus myosuroides [2])	AMARE damage score, application pre-emergence (Amaranthus retroflexus [3])	ECHCG damage score, application pre-emergence (Echinochloa crus-galli [4])	SETFA damage score, application pre-emergence (Setaria faberi [5])	ZEAMX damage score, application pre-emergence (zea mays [6])	ABUTH herbicidal damage score (Abutilon theophrasti [7])	ALOMY herbicidal damage score (Alopecurus myosuroides [8])	AMARE herbicidal damage score (Amaranthus retroflexus [9])	ECHCG herbicidal damage score (Echinochloa crus-galli [10])	SETFA herbicidal damage score (Setaria faberi [11])	ZEAMX herbicidal damage score (zea mays [12])
CC1=C(Cl)C(=O)N(c2cc(C(C)(C)C#N)ncn2)C1O (stereo not drawn) [CF14]	5	3	5	5	5	2	5	5	5	5	5	5
CC1=C(Cl)C(=O)N(c2cc(C(C)(F)F)ncn2)C1O (stereo not drawn) [CF15]	5	3	5	5	5	2	5	4	5	5	5	4
CCN(C)c1cc(N2C(=O)C(Cl)=C(C)C2O)ncn1 (stereo not drawn) [CF16]	2	1	2	2	4	1	3	4	3	5	5	1
CC1=C(Cl)C(=O)N(c2cc(C3(C#N)CC3)ncn2)C1O (stereo not drawn) [CF17]	2	3	5	3	5	2	5	4	5	5	5	3
CC1=C(Cl)C(=O)N(c2cc(C(C)C#N)ncn2)C1O (stereo not drawn) [CF18]	1	4	1	1	3	0	4	3	2	2	3	1
CC1=C(Cl)C(=O)N(c2cc(C(C)C)ncn2)C1O (stereo not drawn) [CF19]	5	2	5	4	4	2	5	3	5	5	5	3
CC1=C(Cl)C(=O)N(c2cc(N(C)C)ncn2)C1O (stereo not drawn) [CF20]	0	1	3	3	1	2	4	4	5	4	5	0
COc1cc(N2C(=O)C(Cl)=C(C)C2O)ncn1 (stereo not drawn) [CF21]	1	2	4	5	4	2	3	4	3	5	5	3
CCCC1=C(Cl)C(=O)N(c2cc(C(C)(C)C#N)ncn2)C1O (stereo not drawn) [CF22]	5	2	5	5	4	2	5	5	5	5	5	3
CC1=C(Br)C(=O)N(c2cc(C(F)(F)F)ncn2)C1O (stereo not drawn) [CG1]	4	3	1	5	4	0	4	5	2	5	5	3
CCC1=C(Br)C(=O)N(c2cc(C(C)(C)C#N)ncn2)C1O (stereo not drawn) [CG2]	5	2	4	4	3	2	5	5	5	5	5	5
CC1=C(Br)C(=O)N(c2cc(C(C)(C)C#N)ncn2)C1O (stereo not drawn) [CG3]	4	4	5	4	5	3	5	5	5	5	5	3
COC1=C(OC)C(O)N(c2cc(C(F)(F)F)ncn2)C1=O (stereo not drawn) [CK4]	5	4	4	4	5	3	5	5	3	5	5	4
